From PubChem BioAssay (NCI)
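Each compound was tested at five concentrations against cells in 96-well plates for 48 hours. GI50 marks 50% less growth. TGI marks complete inhibition of growth.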

Legend:
Assay in all cases: growth of human tumour cells (NCI), 48 h
[1] = tested on: CAKI-1 renal
[2] = tested on: HCT-116 colon
[3] = tested on: HCT-15 colon
[4] = tested on: KM12 colon
[5] = tested on: MDA-MB-435
[6] = tested on: NCI-H522 lung
[7] = tested on: T-47D breast
[8] = tested on: HL-60(TB) leukemia

SMILES | TGI [1] [µM] | TGI [2] [µM] | TGI [3] [µM] | TGI [4] [µM] | TGI [5] [µM] | TGI [6] [µM] | TGI [7] [µM] | GI50 [1] [µM] | GI50 [2] [µM] | GI50 [3] [µM] | GI50 [4] [µM] | GI50 [5] [µM] | GI50 [6] [µM] | GI50 [7] [µM] | GI50 [8] [µM] | TGI [8] [µM]
NC(N)=N/N=C(/c1ccccc1)c1ccc(O)cc1O | > 100 | > 100 | > 100 | > 100 | > 100 | 34.5 | > 100 |  |  |  |  |  |  |  |  | 
OCCCCC#Cc1ccccc1C#Cc1cccs1 | 28.3 | 31.4 | 26.5 | 48 | 30.8 | 35.6 | 23.2 | 14.6 | 15.2 | 13.1 | 16.6 | 16.6 | 18.5 | 1.18 |  | 
Cc1sc2c(c1C)C(c1ccc(Cl)cc1)=N[C@@H](CC(=O)Nc1ccc(O)cc1)c1nnc(C)n1-2 | 16.2 | 17.8 | 14.9 | 29.6 | 19 | 16.1 | 28.2 | 0.0946 | 0.499 | 1.46 | 4.52 | 0.399 | 0.262 | 0.245 | 0.179 | 8.21
Cc1ccc(C(=O)Nc2ccccc2C(=O)N/N=C(\c2ccccc2)c2ccccn2)cc1 | > 100 | > 100 | > 100 | > 100 | > 100 | > 100 | > 100 | 0.324 | 0.348 | 0.06 | 0.388 | 0.534 | 0.582 | 0.493 |  | 
ClC1=C(Cl)C(Cl)=C(Cl)C1=Cc1ccc(Cl)cc1Cl |  | 0.494 | 1.3 | 2.08 | 2.05 |  | 1.3 |  | 0.206 | 0.3 | 0.686 | 0.521 |  | 0.252 | 0.403 | 3.1
Oc1oc(-c2ccccc2)nc1/C=C1/C=NN=N1 | > 100 | > 100 | > 100 | > 100 | > 100 |  | > 100 |  |  |  |  |  |  |  |  | > 100
O=C1/C(=C/c2ccc(C(F)(F)F)cc2)COc2ccc(O)cc21 | 3.85 | 3.42 | 3.47 | 3.41 | 6.54 | 3.69 | 4.76 | 1.74 | 1.77 | 1.66 | 1.75 | 2.41 | 1.59 | 2.03 | 1.27 | 4.35
CN(C)CCN1C(=O)c2cccc3c(-c4ccc5ncn(C6CCCCC6)c5c4)ccc(c23)C1=O | 6.67 | 10.9 | 10.6 | 13.2 | 11.1 | 5.24 | 23.4 | 1.27 | 0.422 | 1.34 | 2.24 | 2.71 | 1.85 | 3.16 | 2.18 | 10.5
C=C(CN(CCN1CCOCC1)CC(=C)c1ccc(C(=O)Nc2ccccc2N)cc1)c1ccc(C(=O)Nc2ccccc2N)cc1 | 34.6 | 15.3 | 43.9 | 19.5 | 28.5 | 28.9 | 47.6 | 9.45 | 7.68 | 10.5 | 9.12 | 8.67 | 2.62 | 8.33 | 13 | > 50
CCN1CCN(c2nc(C)cc(N(CCCNc3ccnc4cc(Cl)ccc34)Cc3ccco3)n2)CC1 |  | 10.9 | 11.6 | 19.4 | 3.24 | 12 | 5.55 |  | 2.05 | 2.34 | 5.07 | 1.7 | 3.12 | 1.97 | 2.11 | 5.08
COC(=O)C1=C2CO[C@@H]3C[C@H]4C(C)(C)CCC[C@]4(C)C(=CC1)[C@]23C | 52.1 | 51.3 | > 100 | 74.1 | 37.5 | > 100 | > 100 | 19.5 | 22.5 | 41.7 | 21.4 | 16.7 | 29.4 | 41.5 |  | 
c1cc(C2N3CCCN2CC3)ccn1 (stereo not drawn) | > 100 | > 100 | > 100 | > 100 | 89.2 | 18.4 | > 100 |  |  |  |  |  |  |  |  | > 100
CC1(C)CC(O)CCCCCCOc2c(CN)cccc2NC(=O)c2nc(cnc2N)-c2ccc(cc2)S1(=O)=O (stereo not drawn) | 2.6 | 1.03 | 2.56 | 2.59 | 2.16 | 2.96 | 4.15 | 1.15 | 0.187 | 0.263 | 0.843 | 0.558 | 1.22 | 1.67 |  | 
CCCCCCCCCCC(CN(CC)CC)C(O)c1ccccc1 (stereo not drawn) | 2.92 | 3.37 | 2.77 | 3.39 | 3.23 | 3.8 | 4.31 | 1.51 | 1.72 | 1.31 | 1.83 | 1.72 | 1.83 | 1.84 | 2.13 | 5.04
COc1cccc2cc(N(C)c3nc(C)nc4ccsc34)ccc12 | 15.3 | 10.5 | 13.5 | 11.4 |  |  | > 100 | < 0.01 | < 0.01 | < 0.01 | < 0.01 |  | < 0.01 | < 0.01 | < 0.01 | < 0.01
CO[C@H]1/C=C/C[C@H](C)[C@@H](C)S(=O)(=O)NC(=O)c2ccc3c(c2)N(C[C@@H]2CC[C@H]21)C[C@@]1(CCCc2cc(Cl)ccc21)CO3 | 12.9 | 8.35 | 8.43 | 11 | 3.14 | 3.3 | 10.8 | 3.45 | 2.75 | 2.54 | 3.17 | 1.48 | 1.39 | 2.75 | 0.246 | 0.655
